Results taken from patent US20210047324A1 (Aptinyx Inc., priority 2018, published 2021).
Values joined by “and” are separate entries in the source; they are usually repeats but may differ in a detail not shown here. Equal values may be shown once.

How the values were obtained:
[1] = target: T1, NMDAR2A (Homo sapiens, UniProt Q12879); experiment: NMDAR agonist assay, [3H]MK-801 binding, NMDAR2A expressing HEK cell membranes; assay type: biochemical; parameters: key to NMDAR2A B: log EC50: 0=−; ≥1×10^−9 M (e.g., −8)=+; <1×10^−9 M (e.g., −10)=++; conditions: 50 μM glutamate; for EC50: read-out: NMDAR2A B: log EC50 (converted); for Emax: 0.25 h, read-out: NMDAR2A A: % maximal [3H]MK-801 binding relative to 1 mM glycine; for Emax / NMDAR2A A: % maximal [3H]MK-801 binding relative to 1 mM glycine: relative to 1 mM glycine
T1 construct: expressed in transfected cells; host or cells: HEK cells (membrane extract)
T1 sequence (Q12879 23-1464, species assumed, other chains not shown): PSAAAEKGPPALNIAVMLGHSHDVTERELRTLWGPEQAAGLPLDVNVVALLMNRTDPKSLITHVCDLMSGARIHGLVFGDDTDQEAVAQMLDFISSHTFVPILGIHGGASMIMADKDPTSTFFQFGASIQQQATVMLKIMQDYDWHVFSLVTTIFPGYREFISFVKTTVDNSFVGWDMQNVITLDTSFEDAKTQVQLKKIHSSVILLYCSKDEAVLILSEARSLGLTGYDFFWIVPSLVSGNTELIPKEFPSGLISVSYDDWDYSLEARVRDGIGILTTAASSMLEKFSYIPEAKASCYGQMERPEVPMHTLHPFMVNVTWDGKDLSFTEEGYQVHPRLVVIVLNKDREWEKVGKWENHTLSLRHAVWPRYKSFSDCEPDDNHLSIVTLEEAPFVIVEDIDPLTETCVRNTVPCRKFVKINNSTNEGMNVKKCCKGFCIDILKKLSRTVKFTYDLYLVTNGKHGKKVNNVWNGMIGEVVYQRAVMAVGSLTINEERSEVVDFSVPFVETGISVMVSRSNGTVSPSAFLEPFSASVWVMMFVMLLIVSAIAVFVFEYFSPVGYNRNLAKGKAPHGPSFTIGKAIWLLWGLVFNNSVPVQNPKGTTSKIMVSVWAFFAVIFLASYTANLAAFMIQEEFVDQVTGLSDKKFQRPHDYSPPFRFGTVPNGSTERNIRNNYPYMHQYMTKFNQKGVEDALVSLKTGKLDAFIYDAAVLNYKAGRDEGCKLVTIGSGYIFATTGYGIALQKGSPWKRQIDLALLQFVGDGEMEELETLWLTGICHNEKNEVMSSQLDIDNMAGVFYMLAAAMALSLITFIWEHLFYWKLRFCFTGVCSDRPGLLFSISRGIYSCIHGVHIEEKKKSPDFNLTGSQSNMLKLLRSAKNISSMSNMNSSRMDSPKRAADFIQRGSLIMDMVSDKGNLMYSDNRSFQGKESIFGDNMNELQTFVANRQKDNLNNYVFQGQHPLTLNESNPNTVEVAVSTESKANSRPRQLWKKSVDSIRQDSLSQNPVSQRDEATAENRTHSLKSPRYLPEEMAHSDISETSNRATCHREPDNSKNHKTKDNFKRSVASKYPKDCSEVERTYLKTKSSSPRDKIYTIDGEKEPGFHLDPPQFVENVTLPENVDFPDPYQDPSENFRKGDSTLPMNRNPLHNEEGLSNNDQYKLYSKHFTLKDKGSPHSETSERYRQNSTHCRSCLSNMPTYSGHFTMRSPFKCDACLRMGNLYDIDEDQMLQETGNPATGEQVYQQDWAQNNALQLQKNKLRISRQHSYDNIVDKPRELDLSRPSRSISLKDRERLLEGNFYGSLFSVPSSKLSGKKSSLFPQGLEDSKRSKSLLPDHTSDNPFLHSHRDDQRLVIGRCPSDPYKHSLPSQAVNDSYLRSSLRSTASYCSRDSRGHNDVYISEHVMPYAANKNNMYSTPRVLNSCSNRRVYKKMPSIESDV
Method: (§1) Assays were conducted as described by Moskal et al., “GLYX-13: a monoclonal antibody-derived peptide that acts as an N-methyl-D-aspartate receptor modulator,” Neuropharmacology, 49, 1077-87, 2005. These studies were designed to determine if the test compounds act to facilitate NMDAR activation in NMDAR2A, NMDAR2B, NMDAR2C or NMDAR2D expressing HEK cell membranes as measured by increases in [^3H]MK-801 binding.
(§2) In the assay, 300 μg of NMDAR expressing HEK cell membrane extract protein was preincubated for 15 minutes at […] in the presence of saturating concentrations of glutamate (50 μM) and varying concentrations of test compound (1×10^−15M-1×10^−7M), or 1 mM glycine. Following the addition of 0.3 μCi of [3H]MK-801 (22.5 Ci/mmol), reactions were again incubated for 15 minutes at 25° C. (nonequilibrium conditions). Bound and free [3H]MK-801 were separated via rapid filtration using a Brandel apparatus.
(§3) In analyzing the data, the DPM (disintegrations per minute) of [3H]MK-801 remaining on the filter were measured for each concentration of test compound or for 1 mM glycine. The DPM values for each concentration of a ligand (N=2) were averaged. The baseline value was determined from the best fit curve of the DPM values modeled using the GraphPad program and the log(agonist) vs. response (three parameters) algorithm was then subtracted from all points in the dataset. The % maximal [^3H]MK-801 binding was then calculated relative to that of 1 mM glycine: all baseline subtracted DPM values were divided by the average value for 1 mM glycine. The EC50 and % maximal activity were then obtained from the best fit curve of the % maximal [3H]MK-801 binding data modelled using the GraphPad program and the log(agonist) vs. response (three parameters) algorithm.
(§4) The tables below summarize the results for the wild type […] NMDAR2A, NMDAR2B, NMDAR2C, and NMDAR2D, and whether the compound is not an agonist (−), is an agonist (+), or is a strong agonist (++), where column A is based on the % maximal [3H]MK-801 binding relative to 1 mM glycine (−=0; <100%=+; and >100%=++); and column B is based on log EC50 values (0=−; ≥1×10^−9 M (e.g., −8)=+; and <1×10^−9 M (e.g., −10)=++).

[2] = IV pharmacokinetics in Sprague Dawley rats; assay type: in vivo; conditions: Sprague-Dawley, rat, in vivo, iv, 2 mg/kg, normal saline; for Cmax: read-out: Cmax; for Vd: read-out: Vss
Method: Sprague Dawley rats were dosed intravenously using a normal saline formulation containing 2 mg/kg of the compounds identified in the below table. The table below summarizes the results of the IV pharmacokinetics.

[3] = Plasma stability (Human); assay type: in vitro ADME; conditions: after 60 minutes
Method: (§5) Plasma stability of disclosed compounds was investigated. The following table indicates the percent of compound remaining after 60 minutes.

[4] = Oral pharmacokinetics in Sprague Dawley rats (plasma, brain, CSF); assay type: in vivo; conditions: rat, 10 mg/kg; for Tmax / AUC(0-t) / bioavailability / Cmax: Sprague-Dawley, po, plasma; for Tmax / AUC(0-t) / Cmax / CSF Cmax / Brain Cmax: per os; for Tmax: read-out: Tmax; for bioavailability: per os 10 mg/kg; for Cmax: read-out: Cmax
Method: In another experiment, Sprague Dawley rats were dosed per os (oral gavage) using a normal saline formulation containing 10 mg/kg of the compounds identified in the table below. Plasma, brain, and CSF samples were analyzed at various time points over a 24 hour period. The table below summarizes the results of the oral pharmacokinetics, where the first three values (Tmax, Cmax and AUClast) are plasma values.

[5] = Microsomal stability (Rat); assay type: in vitro ADME; conditions: after 60 minutes
Method: (§6) Microsomal stability of disclosed compounds was investigated. The following table indicates the percent of compound remaining after 60 minutes.

[6] = Plasma stability (Rat); assay type: in vitro ADME; conditions: after 60 minutes
Method: as §5

[7] = Microsomal stability (Human); assay type: in vitro ADME; conditions: after 60 minutes
Method: as §6

[8] = target: T2, NMDAR2B (Homo sapiens, UniProt Q13224); experiment: NMDAR agonist assay, [3H]MK-801 binding, NMDAR2B expressing HEK cell membranes; assay type: biochemical; conditions: 50 μM glutamate; for EC50: read-out: NMDAR2B B: log EC50 (converted); for Emax / NMDAR2B A: % maximal [3H]MK-801 binding relative to 1 mM glycine: relative to 1 mM glycine; for Emax: read-out: NMDAR2B A: % maximal [3H]MK-801 binding relative to 1 mM glycine
T2 construct: expressed in transfected cells; host or cells: HEK cells (membrane extract)
T2 sequence (Q13224 27-1484, species assumed, other chains not shown): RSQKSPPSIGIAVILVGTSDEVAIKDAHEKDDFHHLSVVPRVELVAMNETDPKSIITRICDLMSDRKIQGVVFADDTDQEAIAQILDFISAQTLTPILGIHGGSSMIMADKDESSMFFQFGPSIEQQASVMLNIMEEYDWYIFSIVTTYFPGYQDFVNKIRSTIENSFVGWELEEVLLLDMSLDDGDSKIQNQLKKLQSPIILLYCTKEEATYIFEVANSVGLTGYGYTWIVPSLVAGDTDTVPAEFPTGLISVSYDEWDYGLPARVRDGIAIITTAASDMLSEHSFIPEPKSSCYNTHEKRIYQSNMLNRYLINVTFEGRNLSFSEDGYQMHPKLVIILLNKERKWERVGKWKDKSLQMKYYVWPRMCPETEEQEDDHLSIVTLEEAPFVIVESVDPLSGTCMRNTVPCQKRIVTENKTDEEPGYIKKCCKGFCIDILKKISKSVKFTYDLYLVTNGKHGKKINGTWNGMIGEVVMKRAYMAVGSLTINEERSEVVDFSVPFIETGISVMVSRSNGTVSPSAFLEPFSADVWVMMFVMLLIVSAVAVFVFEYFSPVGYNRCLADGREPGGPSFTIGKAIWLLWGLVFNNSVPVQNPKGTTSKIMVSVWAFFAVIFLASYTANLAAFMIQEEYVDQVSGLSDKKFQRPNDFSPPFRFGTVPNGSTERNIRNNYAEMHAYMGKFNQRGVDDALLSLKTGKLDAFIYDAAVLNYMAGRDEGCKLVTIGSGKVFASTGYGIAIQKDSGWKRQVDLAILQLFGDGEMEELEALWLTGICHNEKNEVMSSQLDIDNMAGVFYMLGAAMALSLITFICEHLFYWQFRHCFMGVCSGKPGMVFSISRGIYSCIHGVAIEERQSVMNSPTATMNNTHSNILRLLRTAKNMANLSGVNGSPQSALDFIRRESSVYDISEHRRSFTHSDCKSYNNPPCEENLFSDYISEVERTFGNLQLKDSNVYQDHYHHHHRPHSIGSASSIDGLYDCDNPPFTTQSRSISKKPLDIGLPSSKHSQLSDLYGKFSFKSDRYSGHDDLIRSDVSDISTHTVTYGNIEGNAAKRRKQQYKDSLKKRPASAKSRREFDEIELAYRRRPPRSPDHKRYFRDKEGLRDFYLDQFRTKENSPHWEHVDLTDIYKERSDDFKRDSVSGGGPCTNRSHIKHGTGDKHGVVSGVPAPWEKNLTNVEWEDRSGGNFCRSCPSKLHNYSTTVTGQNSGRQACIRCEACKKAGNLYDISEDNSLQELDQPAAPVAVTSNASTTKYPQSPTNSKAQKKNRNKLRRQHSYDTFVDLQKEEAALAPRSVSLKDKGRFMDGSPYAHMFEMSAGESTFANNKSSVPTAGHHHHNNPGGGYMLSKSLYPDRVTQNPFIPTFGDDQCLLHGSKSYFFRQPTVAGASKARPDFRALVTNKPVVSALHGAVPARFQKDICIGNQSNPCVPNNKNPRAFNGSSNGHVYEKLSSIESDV
Method: as §1, §2, §3, §4

Structure (SMILES) | EC50 [1] | Emax [1] | Plasma (Human): percent of compound remaining [3] | Microsomal (Rat): percent of compound remaining [5] | Plasma (Rat): percent of compound remaining [6] | Microsomal (Human): percent of compound remaining [7] | EC50 [8] | Emax [8] | NMDAR2A A: % maximal [3H]MK-801 binding relative to 1 mM glycine [1] | NMDAR2B A: % maximal [3H]MK-801 binding relative to 1 mM glycine [8] | further results
CN1CC=CCC2(CCCN2Cc2ccccc2)C1=O (single isomer, unassigned) [GT-1, 1-benzyl-7-methyl-1,7-diazaspiro[4.6]undec-9-en-6-one] | < 1 nM | < 100% | 101% | 3% | 96% | 72% | < 1 nM | < 100% |  |  | AUC(0-t) [2]: 210 ng·h/mL; clearance [2]: 157 mL/min/kg; half-life [2]: 39.6 min; Cmax [2]: 421 ng/mL; Vd [2]: 6.5 L/kg; Tmax [4]: 34.8 min; AUC(0-t) [4]: 9.16 ng·h/mL; bioavailability [4]: 1%; Cmax [4]: 23.3 ng/mL; CSF Cmax [4]: 0 ng/mL; Brain Cmax [4]: 0 ng/mL
O=C1NCCCCC12CCCCN2 (single isomer, unassigned) [AZ, 1,8-diazaspiro[5.6]dodecan-7-one] | < 1 nM | < 100% | 101% | 91% | 101% | 92% | < 1 nM | < 100% |  |  | AUC(0-t) [2]: 15400 ng·h/mL; clearance [2]: 2.17 mL/min/kg; half-life [2]: 255 min; Cmax [2]: 17900 ng/mL; Vd [2]: 0.17 L/kg; Tmax [4]: 60 min; AUC(0-t) [4]: 74300 ng·h/mL; bioavailability [4]: 97%; Cmax [4]: 29100 ng/mL; CSF Cmax [4]: 5343.89 ng/mL; Brain Cmax [4]: 8074.7 ng/mL
O=C1N(Cc2ccc(F)cc2)CC=CCC12CCCN2 (single isomer, unassigned) [GK-2, 7-(4-fluorobenzyl)-1,7-diazaspiro[4.6]undec-9-en-6-one] |  |  | 92% | 46% | 97% | 94% | < 1 nM |  | − (−=0) | + (<100%=+) | NMDAR2A B: log EC50 [1]: −
CC(C)C(=O)N1CCCC12CC=CCNC2=O (single isomer, unassigned) [GH-1, 1-isobutyryl-1,7-diazaspiro[4.6]undec-9-en-6-one] | < 1 nM | < 100% | 103% and 96% | 100% | 102% | 104% | < 1 nM | < 100% |  |  | 
O=C1NCC=CCC12CCCN2Cc1ccc(F)cc1 (single isomer, unassigned) [GJ-1, 1-(4-fluorobenzyl)-1,7-diazaspiro[4.6]undec-9-en-6-one] | < 1 nM | < 100% | 105% | 11% | 100% | 83% | < 1 nM | < 100% |  |  | 
O=C1NCC=CCC12CCCN2Cc1ccccc1 (single isomer, unassigned) [GP-2, 1-benzyl-1,7-diazaspiro[4.6]undec-9-en-6-one] | < 1 nM |  | 96% | 7% | 85% | 89% | < 1 nM |  | ++ (>100%=++) | + (<100%=+) | 
O=C1NCC=CCC12CCCN2Cc1ccccc1 (single isomer, unassigned) [GP-1, 1-benzyl-1,7-diazaspiro[4.6]undec-9-en-6-one] | < 1 nM | < 100% | 98% | 2% | 96% | 80% | < 1 nM | > 100% |  |  | 
CC(C)CN1CCCC12CC=CCNC2=O (single isomer, unassigned) [GI-1, 1-isobutyl-1,7-diazaspiro[4.6]undec-9-en-6-one] | < 1 nM | < 100% | 96% | 69% | 102% | 96% | < 1 nM | < 100% |  |  | 
O=C1N(Cc2ccccc2)CC=CCC12CCCN2 (single isomer, unassigned) [GS-2, 7-benzyl-1,7-diazaspiro[4.6]undec-9-en-6-one] | ≥ 1 nM |  | 98% | 0% | 99% | 90% | < 1 nM |  | + (<100%=+) | + (<100%=+) | 
O=C1N(Cc2ccccc2)CC=CCC12CCCN2 (single isomer, unassigned) [GS-1, 7-benzyl-1,7-diazaspiro[4.6]undec-9-en-6-one] | < 1 nM | < 100% | 97% | 0% | 95% | 99% | < 1 nM | < 100% |  |  | 
NC(=O)CN1CCCC12CC=CCNC2=O (single isomer, unassigned) [GQ-1, 2-(6-oxo-1,7-diazaspiro[4.6]undec-9-en-1-yl)acetamide] | < 1 nM | < 100% | 98% | 87% | 98% | 88% | ≥ 1 nM | > 100% |  |  | 
O=C1NCC=CCC12CCCN2Cc1ccc(F)cc1 (single isomer, unassigned) [GJ-2, 1-(4-fluorobenzyl)-1,7-diazaspiro[4.6]undec-9-en-6-one] | < 1 nM |  | 95% | 3% | 99% | 95% | < 1 nM |  | + (<100%=+) | + (<100%=+) | 
